From ChEMBL document CHEMBL5042472, “Design, Synthesis, and Biological Evaluation of a Novel Photocaged PI3K Inhibitor toward Precise Cancer Treatment” (J Med Chem, 2021)
Calls of active or inactive are those of the source. No cut-off for these calls is given here.

How the values were obtained:
MG-63 = assay: Antiproliferative activity against human MG-63 cells assessed as reduction in cell viability irradiated with 365 nm of UV for 5 mins and incubated in dark for 96 hrs by MTT assay; format: functional, cell-based; conditions: MG-63, light or radiation study
[1] = molecular target: Phosphatidylinositol 4,5-bisphosphate 3-kinase catalytic subunit gamma isoform (Homo sapiens, UniProt P48736); assay: Inhibition of PI3K gamma (unknown origin) using PIP2 as substrate incubated in dark at room temperature for 1 hr in presence of ATP by ADP-Glo luminescent assay
HGC-27 [2] = assay: Inhibition of PI3K/AKT signalling pathway in human HGC-27 cells assessed as downregulation of SRP6 phosphorylation at 100 nM irradiated with 365 nm UV light for 5 mins and incubated for 24 hrs by Western blot; format: cell-based
HCT-116 [3] = assay: Inhibition of PI3K/AKT signalling pathway in human HCT-116 cells assessed as downregulation of AKT phosphorylation at Ser473 residue at 100 nM irradiated with 365 nm UV light for 5 mins and incubated for 24 hrs by Western blot; format: cell-based
HGC-27 [4] = assay: Inhibition of PI3K/AKT signalling pathway in human HGC-27 cells assessed as downregulation of AKT phosphorylation at […] residue at 100 nM incubated for 24 hrs under dark condition by Western blot; format: cell-based
HGC-27 [5] = assay: Inhibition of colony formation in human HGC-27 cells at 100 nM incubated for 24 hrs by crystal violet staining based assay; format: functional, cell-based
HCT-116 [6] = assay: Inhibition of PI3K/AKT signalling pathway in human HCT-116 cells assessed as downregulation of AKT phosphorylation at […] residue at 100 nM incubated for 24 hrs under dark condition by Western blot; format: cell-based
MGC-803 = assay: Antiproliferative activity against human MGC-803 cells assessed as reduction in cell viability incubated in dark for 96 hrs by MTT assay; format: functional, cell-based; conditions: MGC-803, 96 h
Homo sapiens [7] = species on record: Homo sapiens; assay: Anticancer activity against KOCO-096 patient derived colon cancer organoid assessed as inhibition of cell growth irradiated with 365 nm of UV light for 5 mins and incubated for 120 hrs; format: functional, tissue-based
[8] = Retention time of the compound by HPLC analysis; format: physicochemical
[9] = Stability in dog liver microsomes assessed as half life at 1 uM in presence of NADPH measured upto 120 min by LC-MS/MS analysis; format: ADME, Canis lupus familiaris, Microsome
HGC-27 [10] = assay: Induction of cell cycle arrest in human HGC-27 cells assessed as accumulation at G0/G1 phase at 100 nM incubated for 24 hrs by flow cytometry; format: functional, cell-based
Homo sapiens [11] = species on record: Homo sapiens; assay: Anticancer activity against KOES-007 patient derived stomach cancer organoid assessed as inhibition of cell growth irradiated with 365 nm of UV light for 5 mins and incubated for 120 hrs; format: functional, tissue-based
HCT-116 [12] = assay: Inhibition of colony formation in human HCT-116 cells at 100 nM incubated for 24 hrs by crystal violet staining based assay; format: functional, cell-based
[13] = molecular target: Phosphatidylinositol 4,5-bisphosphate 3-kinase catalytic subunit beta isoform (Homo sapiens, UniProt P42338); assay: Inhibition of PI3K beta (unknown origin) using PIP2 as substrate incubated in dark at room temperature for 1 hr in presence of ATP by ADP-Glo luminescent assay
HCT-116 [14] = assay: Induction of apoptosis in human HCT-116 cells assessed as increase in number of cells in sub-G0 phase at 100 nM incubated for 24 hrs by flow cytometry; format: functional, cell-based
HCT-116 [15] = assay: Induction of cell cycle arrest in human HCT-116 cells assessed as accumulation at G0/G1 phase at 100 nM irradiated with 365 nm UV light for 5 mins incubated for 24 hrs by flow cytometry; format: functional, cell-based
HGC-27 [16] = assay: Inhibition of PI3K/AKT signalling pathway in human HGC-27 cells assessed as downregulation of SRP6 phosphorylation at 100 nM incubated for 24 hrs under dark condition by Western blot; format: cell-based
AGS = assay: Antiproliferative activity against human AGS cells assessed as reduction in cell viability incubated in dark for 96 hrs by MTT assay; format: functional, cell-based
HCT-116 [17] = assay: Antiproliferative activity against human HCT-116 cells assessed as reduction in cell viability irradiated with 365 nm of UV for 5 mins and incubated in dark for 96 hrs by MTT assay; format: functional, cell-based; conditions: HCT-116, light or radiation study
[18] = Plasma protein binding in dog at 1 uM by LC-MS/MS analysis; format: ADME, cell-free, Canis lupus familiaris; conditions: read-out: PPB (converted)
HGC-27 [19] = assay: Inhibition of PI3K/AKT signalling pathway in human HGC-27 cells assessed as downregulation of AKT phosphorylation at Ser473 residue at 100 nM incubated for 24 hrs under dark condition by Western blot; format: cell-based
HCT-116 [20] = assay: Antiproliferative activity against human HCT-116 cells assessed as reduction in cell viability incubated in dark for 96 hrs by MTT assay; format: functional, cell-based; conditions: HCT-116, 96 h
[21] = Stability in rat liver microsomes assessed as half life at 1 uM in presence of NADPH by LC-MS/MS analysis; format: ADME, Microsome
HGC-27 [22] = assay: Induction of cell cycle arrest in human HGC-27 cells assessed as accumulation at G0/G1 phase at 100 nM irradiated with 365 nm UV light for 5 mins and incubated for 24 hrs by flow cytometry; format: functional, cell-based
HCT-116 [23] = assay: Inhibition of PI3K/AKT signalling pathway in human HCT-116 cells assessed as downregulation of AKT phosphorylation at Ser473 residue at 100 nM incubated for 24 hrs under dark condition by Western blot; format: cell-based
HCT-116 [24] = assay: Inhibition of PI3K/AKT signalling pathway in human HCT-116 cells assessed as downregulation of […] phosphorylation at 100 nM irradiated with 365 nm UV light for 5 mins and incubated for 24 hrs by Western blot; format: cell-based

Sequence of Phosphatidylinositol 4,5-bisphosphate 3-kinase catalytic subunit gamma isoform (P48736 whole entry, canonical isoform): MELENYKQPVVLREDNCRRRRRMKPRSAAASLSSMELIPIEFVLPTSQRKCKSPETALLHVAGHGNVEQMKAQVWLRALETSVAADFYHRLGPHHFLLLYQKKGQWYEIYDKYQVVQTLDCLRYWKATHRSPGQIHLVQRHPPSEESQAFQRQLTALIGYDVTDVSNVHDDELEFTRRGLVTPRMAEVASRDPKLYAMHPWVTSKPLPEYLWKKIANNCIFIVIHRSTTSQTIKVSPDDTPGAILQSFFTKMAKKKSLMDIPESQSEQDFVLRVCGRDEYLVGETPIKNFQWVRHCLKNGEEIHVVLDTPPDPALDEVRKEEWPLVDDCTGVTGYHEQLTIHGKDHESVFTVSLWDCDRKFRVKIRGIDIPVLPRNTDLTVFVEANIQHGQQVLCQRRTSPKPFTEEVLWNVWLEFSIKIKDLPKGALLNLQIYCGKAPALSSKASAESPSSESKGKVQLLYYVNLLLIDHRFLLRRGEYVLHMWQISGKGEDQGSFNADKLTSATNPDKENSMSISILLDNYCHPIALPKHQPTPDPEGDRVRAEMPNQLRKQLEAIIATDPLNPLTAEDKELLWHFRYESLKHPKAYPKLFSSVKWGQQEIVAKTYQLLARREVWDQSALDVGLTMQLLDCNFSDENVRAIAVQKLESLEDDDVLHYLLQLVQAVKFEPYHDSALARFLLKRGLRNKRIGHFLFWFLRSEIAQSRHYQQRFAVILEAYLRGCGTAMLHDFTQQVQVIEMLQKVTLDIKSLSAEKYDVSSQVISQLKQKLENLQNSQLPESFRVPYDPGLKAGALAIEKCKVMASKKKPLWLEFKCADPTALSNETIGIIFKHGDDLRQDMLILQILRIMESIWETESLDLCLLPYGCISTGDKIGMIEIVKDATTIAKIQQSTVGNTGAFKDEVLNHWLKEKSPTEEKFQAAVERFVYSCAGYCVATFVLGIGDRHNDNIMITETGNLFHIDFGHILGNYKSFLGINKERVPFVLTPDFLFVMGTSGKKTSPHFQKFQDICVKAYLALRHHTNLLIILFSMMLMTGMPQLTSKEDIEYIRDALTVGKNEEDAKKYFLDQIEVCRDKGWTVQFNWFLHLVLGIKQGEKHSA
Sequence of Phosphatidylinositol 4,5-bisphosphate 3-kinase catalytic subunit beta isoform (P42338 whole entry, canonical isoform): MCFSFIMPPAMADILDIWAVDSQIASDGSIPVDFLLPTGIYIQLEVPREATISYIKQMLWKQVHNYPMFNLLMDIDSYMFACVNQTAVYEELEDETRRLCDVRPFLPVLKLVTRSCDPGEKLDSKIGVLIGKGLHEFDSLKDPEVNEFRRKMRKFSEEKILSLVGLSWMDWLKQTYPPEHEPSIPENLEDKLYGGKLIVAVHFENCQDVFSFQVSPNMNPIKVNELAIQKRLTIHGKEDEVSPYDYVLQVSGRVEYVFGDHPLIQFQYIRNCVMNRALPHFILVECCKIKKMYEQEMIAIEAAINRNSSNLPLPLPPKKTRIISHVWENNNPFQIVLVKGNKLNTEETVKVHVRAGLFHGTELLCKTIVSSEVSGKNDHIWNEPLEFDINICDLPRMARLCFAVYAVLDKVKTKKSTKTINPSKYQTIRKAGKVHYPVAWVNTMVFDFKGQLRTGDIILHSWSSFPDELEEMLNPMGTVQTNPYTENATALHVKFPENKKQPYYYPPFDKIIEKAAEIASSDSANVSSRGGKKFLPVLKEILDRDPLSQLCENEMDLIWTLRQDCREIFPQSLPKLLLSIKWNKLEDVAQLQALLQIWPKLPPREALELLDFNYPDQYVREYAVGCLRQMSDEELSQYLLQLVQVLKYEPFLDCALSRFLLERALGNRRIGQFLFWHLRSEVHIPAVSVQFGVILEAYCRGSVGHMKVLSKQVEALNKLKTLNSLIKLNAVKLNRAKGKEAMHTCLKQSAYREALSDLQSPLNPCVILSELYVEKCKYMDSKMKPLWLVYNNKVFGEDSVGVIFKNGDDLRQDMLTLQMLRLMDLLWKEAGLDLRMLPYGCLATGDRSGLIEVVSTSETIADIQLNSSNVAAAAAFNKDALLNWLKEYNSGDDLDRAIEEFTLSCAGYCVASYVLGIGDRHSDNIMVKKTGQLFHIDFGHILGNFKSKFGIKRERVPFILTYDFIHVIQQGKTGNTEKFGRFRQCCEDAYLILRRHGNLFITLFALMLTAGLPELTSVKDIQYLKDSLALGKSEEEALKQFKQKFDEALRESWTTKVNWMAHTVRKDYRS

In the case of `COc1cc(CN(c2cc(-c3cc(OC4CCOCC4)c4ncnc(C)c4c3)cnc2OC)S(=O)(=O)c2ccc(F)cc2F)c([N+](=O)[O-])cc1OC`, the IC50 (MG-63) is reported as 142 nM, the IC50 [1] is reported as 4.47 µM and the inhibition (HGC-27 [2]) is reported as “Active”. The inhibition (HCT-116 [3]) was “Active”, the inhibition (HGC-27 [4]) was “inactive” and the inhibition (HGC-27 [5]) was “inactive”. The inhibition (HCT-116 [6]) was “inactive”, the IC50 (MGC-803) was 1740 nM and the Activity (Homo sapiens [7]) was “Dose-Dependent Effect”. The Retention_time [8] was 4.7 min, the half-life at 1 µM [9] was 4.62 min and the Activity (HGC-27 [10]) was “inactive”. The Activity (Homo sapiens [11]) was “Dose-Dependent Effect”, the inhibition (HCT-116 [12]) was “inactive” and the IC50 [13] was 838 nM. For the same compound, the inhibition (HCT-116 [14]) was “Active”, the Activity (HCT-116 [15]) was “inactive” and the inhibition (HGC-27 [16]) was “inactive”. The IC50 (AGS) was 924 nM, the IC50 (HCT-116 [17]) was 81 nM and the fraction unbound at 1 µM [18] was 0.005. The inhibition (HGC-27 [19]) was “inactive”, the IC50 (HCT-116 [20]) was 1460 nM and the half-life at 1 µM [21] was 1.82 min. For the same compound, the Activity (HGC-27 [22]) was “Active”, the inhibition (HCT-116 [23]) was “inactive” and the inhibition (HCT-116 [24]) was “Active”.
